Results published in paper PMC12467068, “Design, Synthesis, and Computational Insights into PKMYT1 Inhibitors for the Treatment of Breast Cancer” (Biomedicines, 2025).
Entries after “also recorded” stand apart in the source; their conditions may differ.

How the values were obtained:
[1] = tested on: A549 cells; assay: Anti-proliferative activity in low-expressing CCNE1 cells A549; type: cell-based
[2] = tested on: HCC1569 cells; assay: Cell apoptosis assay (Annexin V-FITC/PI flow cytometry); type: cell-based; parameters: Q1 / Q2 / Q3 / Q4: unit not given here
Experimental: HCC1569 cells (1 × 10^5/well) were seeded in 6-well plates and cultured for 24 h at 37 °C, 5% CO2. MY-14 at varying concentrations were added, followed by 5-day incubation. Cells were trypsinized and pelleted by centrifugation. Subsequent analysis was performed per the Medilunbio kit protocol: staining was conducted with propidium iodide (PI) and Annexin V-FITC. After 15 min incubation, samples were analyzed by flow cytometry.

[3] = tested on: HCC1569 cells; assay: Cell proliferation assay (CCK-8), HCC1569; type: cell-based; details: CCNE1-amplified breast cancer cells, 5-day incubation, mean ± SD, n = 3
Experimental: (§1) HCC1569 and OVCAR3 cells (2 × 10^3/well) were seeded in 96-well plates and cultured for 24 h at 37 °C, 5% CO2. Compounds at varying concentrations were added, followed by 5-day incubation. Cell viability was assessed using Cell Counting Kit-8 (CCK-8) with absorbance measurement at 450 nm. HCC1569 (BNCC341698) was purchased from BNCC and OVCAR3 (CL-0178) was purchased from Procell.

[4] = tested on: HCC1569 cells; assay: Cell cycle assay (PI flow cytometry); type: cell-based
Experimental: HCC1569 cells (1 × 10^5/well) were seeded in 6-well plates and cultured for 24 h at 37 °C under 5% CO2. MY-14 at varying concentrations were added, followed by 5-day incubation. Cells were trypsinized, pelleted by centrifugation, and fixed with 70% ethanol. Subsequent staining was performed with propidium iodide (PI) and RNase A according to the Beyotime kit protocol. After 30 min incubation at 37 °C, samples were analyzed by flow cytometry.

[5] = tested on: OVCAR3 cells; assay: Cell proliferation assay (CCK-8), OVCAR3; type: cell-based; details: CCNE1-amplified ovarian cancer cells, 5-day incubation, mean ± SD, n = 3
Experimental: as §1

[6] = molecular target: T1, PKMYT1 (Homo sapiens, UniProt Q99640); assay: PKMYT1 enzyme inhibition assay (LanthaScreen Eu kinase binding method); details: mean of two separate experiments
T1 sequence (Q99640 1-499): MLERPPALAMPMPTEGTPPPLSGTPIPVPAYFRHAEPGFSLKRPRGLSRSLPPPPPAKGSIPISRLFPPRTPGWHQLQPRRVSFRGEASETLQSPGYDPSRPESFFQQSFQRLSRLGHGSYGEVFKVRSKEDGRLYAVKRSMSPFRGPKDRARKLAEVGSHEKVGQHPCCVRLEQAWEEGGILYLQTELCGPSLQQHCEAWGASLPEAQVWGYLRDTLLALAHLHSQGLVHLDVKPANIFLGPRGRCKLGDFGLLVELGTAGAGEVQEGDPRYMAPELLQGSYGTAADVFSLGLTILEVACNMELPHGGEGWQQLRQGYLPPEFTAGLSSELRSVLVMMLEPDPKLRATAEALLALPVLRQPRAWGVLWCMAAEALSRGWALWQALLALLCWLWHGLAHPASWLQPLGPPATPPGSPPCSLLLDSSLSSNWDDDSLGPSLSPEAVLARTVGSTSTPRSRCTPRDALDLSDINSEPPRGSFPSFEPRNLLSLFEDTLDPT
Experimental: The PKMYT1 kinase assay was conducted with the LanthaScreen™ Eu kinase binding method, as provided by Thermo Fisher Scientific (Waltham, MA, USA). Initially, compounds were prepared at a concentration of 4 mM in DMSO and subsequently diluted to various concentrations in 1X buffer. […] The plate was then incubated in the dark at 25 °C for 1 h, and fluorescence signals were recorded at 665 nm and 615 nm.

[7] = tested on: OVCAR3 cells; assay: Cell cloning (colony formation) assay; type: cell-based; details: OVCAR3, 14 days of incubation, varying concentrations
Experimental: OVCAR3 cells (4 × 10^3/well) were seeded into 6-well plates and incubated for 24 h at 37 °C in a 5% CO2 atmosphere. Compound MY-14 was then added at varying concentrations, followed by a 14-day incubation period. Subsequently, cells were fixed with a 4% paraformaldehyde solution and stained using crystal violet solution, after which colonies were quantified using ImageJ 1.54 software.

[8] = tested on: BEAS-2B cells; assay: Anti-proliferative activity in normal lung epithelial cells BEAS-2B; type: cell-based

CCOP(=O)(OCC)c1ccc(Nc2ncc(C(=O)Nc3c(C)ccc(O)c3C)c(N)n2)cc1 [MY-14]
cytotoxicity (in words) ([1]; A549, CCNE1-low): did not exhibit cytotoxicity; also recorded: reduced cytotoxicity | IC50 ([1]; Homo sapiens, A549, lung cancer cells, low CCNE1 expression, mean ± SD, n = 3): > 8000 nM | apoptosis induction (in words) ([2]; HCC1569): induced apoptosis in a concentration-dependent manner; also recorded: induced apoptosis-mediated cell death | Q1 ([2]; HCC1569, 0.5 μM): 4.66 | Q2 ([2]; HCC1569, 0.5 μM): 0.51 | Q3 ([2]; HCC1569, 0.5 μM): 18.6 | Q4 ([2]; HCC1569, 0.5 μM): 76.2 | Q1 ([2]; HCC1569, 1.0 μM): 3.91 | Q2 ([2]; HCC1569, 1.0 μM): 0.20 | Q3 ([2]; HCC1569, 1.0 μM): 21.2 | Q4 ([2]; HCC1569, 1.0 μM): 74.7 | Q1 ([2]; HCC1569, 2.0 μM): 4.24 | Q2 ([2]; HCC1569, 2.0 μM): 1.07 | Q3 ([2]; HCC1569, 2.0 μM): 40.4 | Q4 ([2]; HCC1569, 2.0 μM): 54.3 | Q1 ([2]; HCC1569, 4.0 μM): 4.11 | Q2 ([2]; HCC1569, 4.0 μM): 1.14 | Q3 ([2]; HCC1569, 4.0 μM): 46.3 | Q4 ([2]; HCC1569, 4.0 μM): 48.5 | maximal apoptotic rate ([2]; HCC1569, 5-day incubation): 47.44% | IC50 [3]: 1060 ± 180 nM | IC50 ([3]; Homo sapiens, HCC1569, 120 h): 1020 nM | cell-cycle arrest (in words) [4]: arrested cell-cycle progression at the S-phase; also recorded: G1/S phase cell-cycle arrest | distribution of G2/M-phase cells (in words) [4]: no significant impact | proportion of G1-phase cells (in words) [4]: reducing the proportion of G1-phase cells | proportion of S-phase cells (in words) [4]: concentration-dependent increase in the proportion of S-phase cells | IC50 [5]: 800 ± 70 nM | IC50 ([5]; Homo sapiens, OVCAR-3, 120 h): 820 nM | IC50 [6]: 2.6 nM | colony formation (in words) [7]: inhibited colony formation in a dose-dependent manner | cytotoxicity (in words) ([8]; BEAS-2B lung epithelial cells): did not exhibit cytotoxicity; also recorded: reduced cytotoxicity | IC50 ([8]; Homo sapiens, BEAS-2B, lung epithelial cells, mean ± SD, n = 3): > 8000 nM
